Experiments:
Assay type in all cases: functional
Rattus norvegicus [1] = species: Rattus norvegicus; assay: In vitro inhibition of sodium-dependent high-affinity choline uptake activity (1 uM choline) at 1E-7 M concentration in the absence of thiosulfate
Rattus norvegicus [2] = species: Rattus norvegicus; assay: In vitro inhibition of sodium-dependent high-affinity choline uptake activity (1 uM choline) at 1E-7 M concentration in the presence of thiosulfate
Rattus norvegicus [3] = species: Rattus norvegicus; assay: In vitro inhibition of sodium-dependent high-affinity choline uptake activity (1 uM choline) at 1E-8 M concentration in the absence of thiosulfate
Rattus norvegicus [4] = species: Rattus norvegicus; assay: In vitro inhibition of sodium-dependent high-affinity choline uptake activity (1 uM choline) at 5E-8 M concentration in the absence of thiosulfate
Rattus norvegicus [5] = species: Rattus norvegicus; assay: In vitro inhibition of sodium-dependent high-affinity choline uptake activity (1 uM choline) at 5E-8 M concentration in the presence of thiosulfate
Rattus norvegicus [6] = species: Rattus norvegicus; assay: inhibition of sodium-dependent high-affinity choline uptake activity at 25 nM concentration for 15 min post wash pre-incubation time.
Rattus norvegicus [7] = species: Rattus norvegicus; assay: inhibition of sodium-dependent high-affinity choline uptake activity at 25 nM concentration for 2.5 min post wash pre-incubation time.
Rattus norvegicus [8] = species: Rattus norvegicus; assay: inhibition of sodium-dependent high-affinity choline uptake activity at 25 nM concentration for 7.5 min post wash pre-incubation time.
Rattus norvegicus [9] = species: Rattus norvegicus; assay: Na-dependent high-affinity choline uptake at 25 nM concentration for 15 min post wash preincubation time.
Rattus norvegicus [10] = species: Rattus norvegicus; assay: Na-dependent high-affinity choline uptake at 25 nM concentration for 2.5 min post wash pre-incubation time.
Rattus norvegicus [11] = species: Rattus norvegicus; assay: Na-dependent high-affinity choline uptake at 25 nM concentration for 7.5 min post wash pre-incubation time.
Rattus norvegicus [12] = species: Rattus norvegicus; assay: In vitro inhibition of sodium-dependent high-affinity choline uptake activity (1 uM choline) at 2E-5 M concentration in the absence of thiosulfate
Rattus norvegicus [13] = species: Rattus norvegicus; assay: In vitro inhibition of sodium-dependent high-affinity choline uptake activity (1 uM choline) at 2E-5 M concentration in the presence of thiosulfate

Question: `OC1(c2ccc(-c3ccc(C4(O)CN(CCBr)CCO4)cc3)cc2)CN(CCBr)CCO1` (configuration not stated) was tested. Which Inhibition (Rattus norvegicus [1]) did it give?
Answer: Its Inhibition is 100%.

Question: What about the Inhibition (Rattus norvegicus [2]) of the same compound?
Answer: The Inhibition was 0%.

Question: What about the Inhibition (Rattus norvegicus [3]) of the same compound?
Answer: The Inhibition was 84%.

Question: What about the Inhibition (Rattus norvegicus [4]) of the same compound?
Answer: The Inhibition was 100%.

Question: What about the Inhibition (Rattus norvegicus [5]) of the same compound?
Answer: The Inhibition was 0%.

Question: What about the Inhibition (Rattus norvegicus [6]) of the same compound?
Answer: Its Inhibition is 34%.

Question: And the Inhibition (Rattus norvegicus [7])?
Answer: Its Inhibition is 31.2%.

Question: And the Inhibition (Rattus norvegicus [8])?
Answer: The Inhibition was 32.9%.

Question: What about the Choline uptake (Rattus norvegicus [9]) of the same compound?
Answer: The Choline uptake was 54.9 pM (4 min)-1 (mg of protein)-1.

Question: And the Choline uptake (Rattus norvegicus [10])?
Answer: Its Choline uptake is 58.8 pM (4 min)-1 (mg of protein)-1.

Question: What about the Choline uptake (Rattus norvegicus [11]) of the same compound?
Answer: The Choline uptake was 59.8 pM (4 min)-1 (mg of protein)-1.

Question: With `C[N+]1(C)CCOC(O)(c2ccccc2)C1` (configuration not stated) as the compound, how does the Inhibition (Rattus norvegicus [12]) read?
Answer: Its Inhibition is 58%.

Question: How did the Inhibition (Rattus norvegicus [3]) turn out when `C[N+]1(C)CCOC(O)(c2ccc(-c3ccc(C4(O)C[N+](C)(C)CCO4)cc3)cc2)C1` (configuration not stated) [HEMICHOLINIUM-3] was run?
Answer: Its Inhibition is 35%.

Question: And the Inhibition (Rattus norvegicus [4])?
Answer: Its Inhibition is 83%.

Question: What about the Inhibition (Rattus norvegicus [5]) of the same compound?
Answer: Its Inhibition is 85%.

Question: Which results are given for `OC1(c2ccccc2)CN(CCBr)CCO1` (configuration not stated)?
Answer: Inhibition (Rattus norvegicus [12]): 71%; Inhibition (Rattus norvegicus [13]): 9%

Reference: ChEMBL document CHEMBL1122303, “Synthesis and biological activity of a 2-bromoethylamine (mustard) derivative of hemicholinium-3 and hemicholinium-15” (1983)
